Measured values published in patent US5981545A, “N-linked azabicyclic heterocycles useful for treating dementia” (Beecham Group p.l.c., priority 1989, dated 1999).
Structures can show the parent of a compound that is named as a salt.

Key:
muscarinic receptors [1] = test: Radio ligand binding, displacement of muscarinic agonist 3H-Oxotremorine-M (3H-OXO-M), rat cerebral cortex membranes; design: species or system Hooded Lister rats; details: 2 nM 3H-OXO-M, 2 mM magnesium chloride, tris pH 7.7, 37° C., 30 min
muscarinic receptors [2] = test: Radio ligand binding, displacement of muscarinic antagonist 3H-Quinuclidinyl Benzilate (3H-QNB), rat cerebral cortex membranes; design: species or system Hooded Lister rats; details: 0.27 nM 3H-QNB, tris pH 7.7, 37° C., 30 min

| Structure (SMILES) | IC50 (muscarinic receptors [1]) [nM] | IC50 (muscarinic receptors [2]) [nM] |
| --- | --- | --- |
| Cc1ncn(C2=CN3CCC2CC3)n1 [E5, 3-(3-Methyl-1,2,4-triazol-1-yl)-1-azabicyclo[2.2.2]oct-2-ene dihydrochloride] | 651 | 30300 |
| Nc1nnnn1C12CCCN(CC1)C2 (racemic) [E34, (±) 5-(5-aminotetrazol-1-yl)-1-azabicyclo[3.2.1]octane] | 1400 |  |
| Cc1nnn([C@@H]2CN3CC[C@@H]2C3)n1 (relative stereo) [E20, (±) exo-3-(5-Methyltetrazol-2-yl)-1-azabicyclo[2.2.1] heptane hydrochloride salt] | 4.5 | 3000 |
| N#Cc1nnn(C2CN3CCC2CC3)n1 (racemic) [E46, (±) 3-(5-Cyanotetrazol-2-yl)-1-azabicyclo[2.2.2]octane oxalate salt] | 1400 | 7750 |
| Clc1nnn(C23CCCN(CC2)C3)n1 (racemic) [E49, (±) 5-(5-Chlorotetrazol-2-yl)-1-azabicyclo[3.2.1]octane oxalate salt] | 3.2 | 500 |
| c1ncn(C23CCCN(CC2)C3)n1 (racemic) [E27, (±) 5-(1,2,4-Triazol-1-yl)-1-azabicyclo[3.2.1]octane dihydrochloride salt] | 12 | 3200 |
| c1nnnn1C12CCCN(CC1)C2 (racemic) [E30, (±) 5-(tetrazol-1-yl)-1-azabicyclo[3.2.1]octane] | 1400 |  |
| Ic1nnn([C@@H]2CN3CC[C@@H]2C3)n1 (relative stereo) [E43, (±) exo-3-(5-Iodotetrazol-2-yl)-1-azabicyclo[2.2.1]heptane oxalate salt] | 42 | 330 |
| Nc1nnn(C2CN3CCC2CC3)n1 (racemic) [E11, (±) 3-(5-Aminotetrazol-2-yl)-1-azabicyclo[2.2.2]octane] | 38 | 6500 |
| Cc1ncn(C2CN3CCC2CC3)n1 (racemic) [E6, (±) 3-(3-Methyl-1,2,4-triazol-1-yl)-1-azabicyclo[2.2.2] octane dihydrochloride salt] | 67.5 | 5600 |
| Cc1nnn(C23CCCN(CC2)C3)n1 (racemic) [E31, (±) 5-(5-Methyltetrazol-2-yl)-1-azabicyclo[3.2.1]octane] | 11.5 | 2900 |
| Cc1ncn(C23CCCN(CC2)C3)n1 (racemic) [E28, (±) 5-(3-Methyl-1,2,4-triazol-1-yl)-1-azabicyclo-[3.2.1]octane dihydrochloride salt] | 17 | 2600 |
| Brc1ncn(C2CN3CCC2CC3)n1 (racemic) [E47, (±) 3-(3-Bromo-1,2,4-triazol-1-yl)-1-azabicyclo[2.2.2]-octane oxalate salt] | 100 | 3300 |
| c1ncn(C23CCN(CC2)C3)n1 [E51, 4-(1,2,4-Triazol-1-yl)-1-azabicyclo[2.2.1]heptane oxalate salt] | 16.5 | 65200 |
| Cc1cnn([C@@H]2CN3CC[C@@H]2C3)n1 (relative stereo) [E25, (±) exo-3-(4-Methyl-1,2,3-triazol-2-yl)-1-azabicyclo-[2.2.1]heptane hydrochloride salt] | 180 | 22000 |
| Clc1nnn(C2CN3CCC2CC3)n1 (racemic) [E44, (±) 3-(5-Chlorotetrazol-2-yl)-1-azabicyclo[2.2.2]octane oxalate salt] | 31.8 | 725 |
| Nc1nnn([C@H]2C[C@@H]3CCN(C3)C2)n1 (relative stereo) [E17, (±) exo-3-(5-Aminotetrazol-2-yl)-1-azabicyclo[3.2.1] octane hydrochloride] | 170 | 2700 |
| Nc1nnn(C23CCCN(CC2)C3)n1 (racemic) [E33, (±) 5-(5-Aminotetrazol-2-yl)-1-azabicyclo[3.2.1]octane] | 7.5 | 6200 |
| Nc1ncnn1C1CN2CCC1CC2 (racemic) [E39, (±) 3-(5-amino-1,2,4-triazol-1-yl)-1-azabicyclo[2.2.2]octane dihydrochloride salt] | 14500 |  |
| c1cnn(C2CN3CCC2CC3)c1 (racemic) [E2, (±) 3-(Pyrazol-1-yl)-1-azabicyclo[2.2.2]octane dihydrochloride salt] | 1250 | 35000 |
| c1nnn(C2CN3CCC2CC3)n1 (racemic) [E15, (±) 3-(Tetrazol-2-yl)-1-azabicyclo[2.2.2]octane hydrochloride salt] | 242 | 28100 |
| Cc1ccn(C2CN3CCC2CC3)n1 (racemic) [E1, (±) 3-(3-Methylpyrazol-1-yl)-1-azabicyclo[2.2.2]octane oxalate salt] | 369 | 5000 |

| Structure (SMILES) | IC50 (muscarinic receptors [1]) [nM] | IC50 (muscarinic receptors [2]) [nM] |
| --- | --- | --- |
| Nc1nnn([C@@H]2CN3CC[C@@H]2C3)n1 (relative stereo) [E18, (±) exo-3-(5-Aminotetrazol-2-yl)-1-azabicyclo[2.2.1] heptane] | 2.62 | 4300 |
| c1nnnn1C1CN2CCC1CC2 (racemic) [E16, (±) 3-(Tetrazol-1-yl)-1-azabicyclo[2.2.2]octane hydrochloride salt] | 2750 | 110000 |
| Nc1ncn(C23CCCN(CC2)C3)n1 (racemic) [E36, (±) 5-(3-Amino-1,2,4-triazol-1-yl)-1-azabicyclo[3.2.1]octane] | 19.5 | 6750 |
| c1ncn([C@@H]2CN3CC[C@@H]2C3)n1 (relative stereo) [E9, (±) exo-3-(1,2,4-Triazol-1-yl)-1-azabicyclo[2.2.1]heptane dihydrochloride salt] | 48 | 43000 |
| CCc1nnn([C@@H]2CN3CC[C@@H]2C3)n1 (relative stereo) [E23, (±) exo-3-(5-Ethyltetrazol-2-yl)-1-azabicyclo[2.2.1] heptane hydrochloride salt] | 325 | 3300 |
| Brc1nnn([C@@H]2CN3CC[C@@H]2C3)n1 (relative stereo) [E41, (±) exo-3-(5-Bromotetrazol-2-yl)-1-azabicyclo[2.2.1]heptane oxalate salt] | 6.5 | 1500 |
| c1nnn([C@H]2C[C@@H]3CCN(C3)C2)n1 (relative stereo) [E22, (±) exo-3-(Tetrazol-2-yl)-1-azabicyclo[3.2.1]octane hydrochloride salt] | 153 | 55000 |
| Cc1nnn(C2CN3CCC2CC3)n1 (racemic) [E10, (±) 3-(5-Methyltetrazol-2-yl)-1-azabicyclo[2.2.2]octane hydrochloride salt] | 30 | 2800 |
| Cc1cnn(C2CN3CCC2CC3)n1 (racemic) [E12, (±) 3-(4-Methyl-1,2,3-triazol-2-yl)-1-azabicyclo-[2.2.2]octane hydrochloride] | 260 | 2100 |
| c1nnn(C23CCCN(CC2)C3)n1 (centres unmarked) [E29, 5-(Tetrazol-2-yl)-1-azabicyclo[3.2.1]octane] | 22 | 12800 |
| Brc1ncn([C@@H]2CN3CC[C@@H]2C3)n1 (relative stereo) [E54, (±) exo-3-(3-Bromo-1,2,4-triazol-1-yl)-1-azabicyclo-[2.2.1]heptane oxalate salt] | 32 | 4400 |
| Clc1nnn([C@@H]2CN3CC[C@@H]2C3)n1 (relative stereo) [E42, (±) exo-3-(5-Chlorotetrazol-2-yl)-1-azabicyclo[2.2.1]heptane oxalate salt] | 7.6 | 700 |
| Nc1ncnn1C12CCCN(CC1)C2 (racemic) [E37, (±) 5-(5-amino-1,2,4-triazol-1-yl)-1-azabicyclo[3.2.1]octane] | 130 | 58000 |
| Clc1ncn(C2CN3CCC2CC3)n1 (racemic) [E48, (±) 3-(3-Chloro-1,2,4-triazol-1-yl)-1-azabicyclo[2.2.2] octane oxalate salt] | 195 | 9000 |
| Cc1ncn([C@@H]2CN3CC[C@@H]2C3)n1 (relative stereo) [E8, (±) exo-3-(3-Methyl-1,2,4-triazol-1-yl)-1-azabicyclo-[2.2.1]heptane dihydrochloride salt] | 22 | 6300 |
| c1ncn(C2CN3CCC2CC3)n1 (racemic) [E7, (±) 3-(1,2,4-Triazol-1-yl)-1-azabicyclo[2.2.2]octane dihydrochloride salt] | 475 | 44000 |
| c1nnn([C@@H]2CN3CC[C@@H]2C3)n1 (relative stereo) [E19, (±) exo-3-(Tetrazol-2-yl)-1-azabicyclo[2.2.1]heptane hydrochloride salt] | 30 | 22300 |
| Brc1nnn(C23CCCN(CC2)C3)n1 (racemic) [E50, (±) 5-(5-Bromotetrazol-2-yl)-1-azabicyclo[3.2.1]octane] | 6.5 | 410 |
| Brc1nnn(C2CN3CCC2CC3)n1 (racemic) [E40, (±) 3-[5-Bromotetrazol-2-yl]-1-azabicyclo[2.2.2]octane oxalate salt] | 19.7 | 488 |
| Cc1nnnn1[C@@H]1CN2CC[C@@H]1C2 (relative stereo) [E21, (±) exo-3-(5-Methyltetrazol-1-yl)-1-azabicyclo[2.2.1] heptane hydrochloride salt] | 6600 | 310000 |
| Nc1ncn(C2CN3CCC2CC3)n1 (racemic) [E38, (±) 3-(3-Amino-1,2,4-triazol-1-yl)-1-azabicyclo-[2.2.2]octane] | 180 | 14500 |
